# Test results published in patent US20060281763A1, “Carboxamide inhibitors of TGFbeta” (priority 2005, published 2006).
# Like-named read-outs stand apart in the source and are kept apart here.
# Target: T1, TGFβ R1 (Homo sapiens, UniProt P36897)
# T1 sequence (P36897 34-503): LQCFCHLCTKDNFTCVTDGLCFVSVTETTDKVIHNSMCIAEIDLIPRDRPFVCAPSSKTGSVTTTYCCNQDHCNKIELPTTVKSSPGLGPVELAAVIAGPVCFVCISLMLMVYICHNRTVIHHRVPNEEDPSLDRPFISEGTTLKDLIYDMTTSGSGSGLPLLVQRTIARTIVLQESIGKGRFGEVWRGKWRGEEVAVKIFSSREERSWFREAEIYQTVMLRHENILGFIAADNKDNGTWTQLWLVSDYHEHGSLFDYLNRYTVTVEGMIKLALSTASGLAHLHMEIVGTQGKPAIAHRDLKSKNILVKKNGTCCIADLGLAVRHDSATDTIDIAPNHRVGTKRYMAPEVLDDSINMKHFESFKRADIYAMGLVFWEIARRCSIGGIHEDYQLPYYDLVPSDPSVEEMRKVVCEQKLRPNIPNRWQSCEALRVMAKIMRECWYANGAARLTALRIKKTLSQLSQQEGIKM
# Test: TGFβ R1 autophosphorylation protocol (33P-ATP, phosphocellulose filter plate)
# Format: biochemical
# Conditions: 10 uM ATP, read-out: IC50 for Kinase Inhibition
# Protocol: The compounds of the invention were tested for their ability to inhibit TGFβ by a TGFβ R^1 autophosphorylation protocol. This was conducted as follows: Compound dilutions and reagents were prepared fresh daily. Compounds were diluted from DMSO stock solutions to 2 times the desired assay concentration, keeping final DMSO concentration in the assay less than or equal to 1%. TGFβ R1 was diluted to 4 times the desired assay concentration in buffer+DTT. ATP was diluted into 4× reaction buffer, and gamma-^33P-ATP was added at 60 uCi/mL.
# The assay was performed by adding 10 ul of the enzyme to 20 ul of the compound solution. The reaction was initiated by the addition of 10 ul of ATP mix. Final assay conditions included 10 uM ATP, 170 nM TGFβ R1, and […] in 20 mM MOPS, pH7. The reactions were incubated at room temperature for 20 minutes. The reactions were stopped by transferring 23 ul of reaction mixture onto a phosphocellulose 96-well filter plate, which had been pre-wetted with 15 ul of 0.25M H3PO4 per well. After 5 minutes, the wells were washed 4× with 75 mM H3PO4 and once with 95% ethanol. The plate was dried, scintillation cocktail was added to each well, and the wells were counted in a Packard TopCount microplate scintillation counter.
# [1] = 170 nM TGFβ R1, 20 minutes at room temperature
# [2] = 170 nM TGFβ R1, room temperature 20 minutes
Compound,IC50 [1] [µM],IC50 [2] [µM]
COc1cnc(-c2cc(Cl)ccc2F)nc1Nc1ccncc1C(=O)NCCCNCCNC(C)C [Compound 14],0.12,–
"COC(=O)[C@H]1C[C@@H](NC(=O)c2cnccc2Nc2nc(-c3cc(Cl)ccc3F)ncc2OC)CN1 [Compound 89, 4-({4-[2-(5-Chloro-2-fluoro-phenyl)-5-methoxy-pyrimidin-4-ylamino]-pyridine-3-carbonyl}-amino)-pyrrolidine-2-carboxylic acid methyl ester]",0.19,–
"CC(C)c1cnc(-c2cc(Cl)ccc2F)nc1Nc1ccncc1C(=O)NCC(C)(C)O [Compound 52, 4-[2-(5-Chloro-2-fluoro-phenyl)-5-isopropyl-pyrimidin-4-ylamino]-N-(2-hydroxy-2-methyl-propyl)-nicotinamide]",0.09,–
COc1cnc(-c2cc(Cl)ccc2F)nc1Nc1ccncc1C(=O)NCCNCC(C)O (stereo not shown) [Compound 5],0.02,–
"COc1cnc(-c2cc(Cl)ccc2F)nc1Nc1ccncc1C(=O)N1CC[C@@H](F)C1 [Compound 241, {4-[2-(5-Chloro-2-fluoro-phenyl)-5-methoxy-pyrimidin-4-ylamino]-pyridin-3-yl}-(3-fluoro-pyrrolidin-1-yl)-methanone]",–,0.127
"COc1cnc(-c2cc(Cl)ccc2F)nc1Nc1ccncc1C(=O)NCCCNCCOC1O[C@H](COC(C)=O)[C@@H](OC(C)=O)[C@H](OC(C)=O)[C@H]1OC(C)=O (stereo in doubt) [Compound 132, Acetic acid 3,4,5-triacetoxy-6-{2-[3-({4-[2-(5-chloro-2-fluoro-phenyl)-5-methoxy-pyrimidin-4-ylamino]-pyridine-3-carbonyl)-amino)-propylamino]-ethoxy}-tetrahydro-pyran-2-ylmethyl ester]",0.032,–
"CC(C)c1cnc(-c2cc(Cl)ccc2F)nc1Nc1ccncc1C(=O)NCCCN1CCCC1 [Compound 161, 4-[2-(5-Chloro-2-fluoro-phenyl)-5-isopropyl-pyrimidin-4-ylamino]-N-(3-pyrrolidin-1-yl-propyl)-nicotinamide]",–,0.004
"COc1cnc(-c2cc(Cl)ccc2F)nc1Nc1ccncc1C(=O)N1CCN(C)CC1 [Compound 118, {4-[2-(5-Chloro-2-fluoro-phenyl)-5-methoxy-pyrimidin-4-ylamino]-pyridin-3-yl}-(4-methyl-piperazin-1-yl)-methanone]",6.57,–
"COc1cnc(-c2cc(Cl)ccc2F)nc1Nc1cc[n+]([O-])cc1C(=O)NC1CC1 [Compound 114, 4-[2-(5-Chloro-2-fluoro-phenyl)-5-methoxy-pyrimidin-4-ylamino]-N-cyclopropyl-1-oxy-nicotinamide]",3.08,–
"COc1cnc(-c2cc(Cl)ccc2F)nc1Nc1ccncc1C(=O)NCCCNC(=O)NC1CCCCC1 [Compound 64, 4-[2-(5-Chloro-2-fluoro-phenyl)-5-methoxy-pyrimidin-4-ylamino]-N-[3-(3-cyclohexyl-ureido)-propyl]-nicotinamide]",0.89,–
"COc1cnc(-c2cc(Cl)ccc2F)nc1Nc1cc[n+]([O-])cc1C(=O)NC[C@H](C)O [Compound 197, 4-[2-(5-Chloro-2-fluoro-phenyl)-5-methoxy-pyrimidin-4-ylamino]-N-(2-hydroxy-propyl)-1-oxy-nicotinamide]",–,0.675
CN/C(=N\C#N)NCCCNC(=O)c1cnccc1Nc1nc(-c2cc(Cl)ccc2F)ncc1OC [Compound 41],0.05,–
"CNC(=O)NCCCNC(=O)c1cnccc1Nc1nc(-c2cc(Cl)ccc2F)ncc1OC [Compound 74, 4-[2-(5-Chloro-2-fluoro-phenyl)-5-methoxy-pyrimidin-4-ylamino]-N-[3-(3-methyl-ureido)-propyl]-nicotinamide]",0.15,–
"COc1cnc(-c2cc(Cl)ccc2F)nc1Nc1ccncc1C(=O)N1CC[C@@H](N)C1 [Compound 174, (3-Amino-pyrrolidin-1-yl)-{4-[2-(5-chloro-2-fluoro-phenyl)-5-methoxy-pyrimidin-4-ylamino]-pyridin-3-yl}-methanone]",–,1.16
"COc1cnc(-c2cc(Cl)ccc2F)nc1Nc1ccncc1C(=O)NCCNCC(C)(C)O [Compound 112, 4-[2-(5-Chloro-2-fluoro-phenyl)-5-methoxy-pyrimidin-4-ylamino]-N-[2-(2-hydroxy-2-methyl-propylamino)-ethyl]-nicotinamide]",0.09,–
"COc1cnc(-c2cc(Cl)ccc2F)nc1Nc1ccncc1C(=O)NC1CCN(CCC2O[C@H](CO)[C@@H](O)[C@H](O)[C@H]2O)CC1 (stereo partly shown) [Compound 137, 4-[2-(5-Chloro-2-fluoro-phenyl)-5-methoxy-pyrimidin-4-ylamino]-N-{1-[2-(3,4,5-trihydroxy-6-hydroxymethyl-tetrahydro-pyran-2-yl)-ethyl]-piperidin-4-yl}-nicotinamide]",0.018,–
"COc1cnc(-c2cc(Cl)ccc2F)nc1Nc1ccncc1C(=O)N1CCN(CCO)CC1 [Compound 116, {4-[2-(5-Chloro-2-fluoro-phenyl)5-methoxy-pyrimidin-4-ylamino]pyridin-3-yl}-[4-(2-hydroxy-ethyl)-piperazin-1-yl]-methanone]",7.37,–
"COc1cnc(-c2cc(Cl)ccc2F)nc1Nc1ccncc1C(=O)NCCCn1ccnc1 [Compound 10, 4-[2-(5-Chloro-2-fluoro-phenyl)-5-methoxy-pyrimidin-4-ylamino]-N-(3-inidazol-1-yl-propyl)-nicotinamide]",0.06,–
"COc1cnc(-c2cc(Cl)ccc2F)nc1Nc1ccncc1C(=O)NCCCN1CCN(C)CC1 [Compound 38, 4-[2-(5-Chloro-2-fluoro-phenyl)-5-methoxy-pyrimidin-4-ylamino]-N-[3-(4-methyl-piperazin-1-yl)-propyl]-nicotinamide]",0.54,–
"CNC(=O)c1cnccc1Nc1nc(-c2cc(Cl)ccc2F)ncc1Br [Compound 93, 4-[5-Bromo-2-(5-chloro-2-fluoro-phenyl)-pyrimidin-4-ylamino]-N-methyl-nicotinamide]",0.03,–
"COc1cnc(-c2cc(Cl)ccc2F)nc1Nc1ccncc1C(=O)NC1CCN(C(=O)OC(C)(C)C)CC1 [Compound 8, 4-({4-[2-(5-Chloro-2-fluoro-phenyl)-5-methoxy-pyrimidin-4-ylamino]-pyridine-3-carbonyl}-amino)-piperidine-1-carboxylic acid tert-butyl ester]",0.06,–
"COc1cnc(-c2cc(Cl)ccc2F)nc1Nc1ccncc1C(=O)NCC(O)CN1CCOCC1 (stereo not shown) [Compound 73, 4-[2-(5-Chloro-2-fluoro-phenyl)-5-methoxy-pyrimidin-4-ylamino]-N-(2-hydroxy-3-morpholin-4-yl-propyl)-nicotinamide]",0.36,–
"COc1ccc(NC(=O)NCCNC(=O)c2cnccc2Nc2nc(-c3cc(Cl)ccc3F)ncc2OC)cc1 [Compound 79, 4-[2-(5-Chloro-2-fluoro-phenyl)-5-methoxy-pyrimidin-4-ylamino]-N-{2-[3-(4-methoxy-phenyl)-ureido]-ethyl}-nicotinamide]",0.35,–
"CC(C)c1cnc(-c2cc(Cl)ccc2F)nc1Nc1ccncc1C(=O)NC1CC1CO (stereo not shown) [Compound 179, 4-[2-(5-Chloro-2-fluoro-phenyl)-5-isopropyl-pyrimidin-4-ylamino]-N-(2-hydroxymethyl-cyclopropyl)-nicotinamide]",–,0.005
"COc1cnc(-c2cc(Cl)ccc2F)nc1Nc1ccncc1C(=O)NCCCNCCC1O[C@H](CO)[C@@H](O)[C@H](O)[C@@H]1O (stereo partly shown) [Compound 154, 4-[2-(5-Chloro-2-fluoro-phenyl)-5-methoxy-pyrimidin-4-ylamino]-N-{3-[2-(3,4,5-trihydroxy-6-hydroxymethyl-tetrahydro-pyran-2-yl)-ethylamino]-propyl}-nicotinamide]",0.01,–
"O=C(c1cnccc1Nc1nc(-c2cc(Cl)ccc2F)ncc1C1CCCC1)N1CC[C@H](O)C1 [Compound 212, {4-[2-(5-chloro-2-fluoro-phenyl)-5-cyclopentyl-pyrimidin-4-ylamino]-pyridin-3-yl}(3-hydroxy-pyrrolidin-1-yl)-methanone]",–,0.673
"COc1cnc(-c2cc(Cl)ccc2F)nc1Nc1ccncc1C(=O)NCCCNCC(F)(F)C(F)(F)F [Compound 101, 4-[2-(5-Chloro-2-fluoro-phenyl)-5-methoxy-pyrimidin-4-ylamino]-N-[3-(2,2,3,3,3-pentafluoro-propylamino)-propyl]-nicotinamide]",0.14,–
"COc1cnc(-c2cc(Cl)ccc2F)nc1Nc1ccncc1C(=O)NCCNCC[C@H]1C[C@H](O)[C@@H](CO)O1 [Compound 173, 4-[2-(5-Chloro-2-fluoro-phenyl)-5-methoxy-pyrimidin-4-ylamino]-N-{2-[2-(4-hydroxy-5-hydroxymethyl-tetrahydro-furan-2-yl)-ethylamino]-ethyl}-nicotinamide]",–,0.006
